The values below come from patent US20250256096A1 (priority 2022, published 2025).

The assay relates to cervical vagus nerve. The assay is classed as in vivo, Adult male Lewis rats. To be noted: for vagal nerve activity as detected by spike count analysis of electroneurograms: application directly to the cervical vagus nerve; for vagal nerve activity as detected by spike count analysis of electroneurograms / nerve firing of the main cervical vagus nerve: result in words; for nerve firing of the main cervical vagus nerve: intradermal application to trigeminal dermatomes on the forehead.

[1] abbreviates: intradermal application on forehead near trigeminal nerve endings, high (100 nM) concentration, mean +/- SEM.

“And” between values parts separate entries of the source, which are not always exact repeats. Equal values may be shown once. Read-outs that look alike come from different tables or passages of the source.

Consider `COc1cc(CNC(=O)CCCC/C=C/C(C)C)ccc1O` [Capsaicin, capsaicin], for which the “vagal nerve activity as detected by spike count analysis of electroneurograms” value (“vagal nerve activity as detected” below) was “increased” and the “nerve firing of the main cervical vagus nerve” value (from here on “nerve firing”) is listed as “activated”. In addition, for the setting “high (100 nM) concentration applied directly on the cervical vagus nerve, mean +/- SEM”, the “cervical vagus nerve average spike count” value is 14.5+/−0.7 spikes/second. Further, the “cervical vagus nerve average spike count” value under setting [1] was 13.5+/−0.5 spikes/second. Also, the “cervical vagus nerve average spike count” value (low (10 nM) concentration applied directly on the cervical vagus nerve, mean +/- SEM, POST 60-s segment) is 7.6+/−0.7 spikes/second.
In the case of `CC(C)C[C@H](NC(=O)c1cc2ccccc2s1)C(=O)N1CCN(C(=O)[C@H](CO)NS(=O)(=O)c2ccc(Cl)cc2Cl)CC1` [GSK1016790A], the “vagal nerve activity as detected” value is “increased” and the “nerve firing” value was “activated”. For the same compound, the “cervical vagus nerve average spike count” value under setting [1] was 13.8+/−1.0 spikes/second. In addition, the “cervical vagus nerve average spike count” value (intradermal application on forehead near trigeminal nerve endings, low (10 nM) concentration, mean +/- SEM) was 7.0+/−0.5 spikes/second. Further, the “effect on spike count” value (low (10 nM) or high (100 nM) concentrations directly on the cervical vagus nerve, data not shown) was “no effect”.
WS-12: the “vagal nerve activity as detected” value is “increased” and the “nerve firing” value is “activated”.
As for capsaicin, the “cervical vagus nerve average spike count” value (rat, in vivo) is 11.2+/−0.6 spikes/second and 17.7+/−0.8 spikes/second and 9.6+/−0.5 spikes/second.
